The structures appear in SMILES notation.

Test [1] has as its target Human immunodeficiency virus type 1 reverse transcriptase (Human immunodeficiency virus 1, UniProt Q72547). Put plainly: Compound was evaluated for enzymatic inhibitory activity against recombinant HIV reverse transcriptase.
The nature of test [2]: Compound was evaluated for inhibition of p24 production in HIV infected peripheral blood mononuclear cells. In kind it is functional. The settings on record: Homo sapiens.
Test [3] is described as follows: Compound was evaluated for cytotoxic activity against peripheral blood mononuclear cells using microculture tetrazolium assay. In kind it is functional. To be noted: Homo sapiens.

For the compound `CSCSc1nc(O)c(C)c(Cc2ccccc2)n1`, the half-inhibitory concentration (IC50) is 18.8 µM in test [1], 4.5 µM in test [2] and more than 100 µM in test [3].

Consider `CSCSc1nc(O)c(C(C)C)c(Cc2cc(C)cc(C)c2)n1`, for which the 50% inhibitory concentration (IC50) is 4.8 µM in test [1], 0.01 µM in test [2] and more than 100 µM in test [3].

Consider `CSCSc1nc(O)c(C(C)C)c(Cc2ccccc2)n1`, for which the IC50 in test [1] was 6.1 µM; in test [2] it was less than 0.001 µM; in test [3], more than 100 µM.

With `CCc1c(O)nc(SCSC)nc1Cc1ccccc1`, the 50% inhibitory concentration (IC50) in test [1] is 9.7 µM; in test [2] it was 0.8 µM; in test [3] it was more than 100 µM.

`CCOCn1c(Cc2ccccc2)c(C(C)C)c(=O)[nH]c1=O` [EMIVIRINE] registered an IC50 in test [3] of more than 100 µM.

In the case of `Cc1cn([C@H]2C[C@H](N=[N+]=[N-])[C@@H](CO)O2)c(=O)[nH]c1=O` [ZIDOVUDINE], the concentration for half-maximal inhibition (IC50) in test [1] was more than 100 µM; in test [2] it was 0.004 µM; in test [3], 100 µM.

By IC50 is commonly meant the point on the concentration scale where inhibition reaches its midpoint.
